Legend:
A375 melanoma cells [1] = assay: cell vitality FACS analysis (region R-1, FSC/SSC), A375 melanoma cells; format: cell-based, human; conditions: A375, Protocol A, about 24 hours, FIG. 7; for decrease of cell vitality, comparison in words: any concentration (100, 200, 500 μM)
Protocol: (§1) To transfer adherent cells (A375 and BxPC-3 cells) after culture, cells are washed twice with PBS. To detach the cells, the enzyme biotase is used according to the manufacturer's instructions. For this purpose, after washing with PBS, the cells are mixed with biotase (5 ml of biotase solution per 75 cm^2 surface of the cell culture bottles) and incubated for 5 min at 37 degrees Celsius, and the biotase is separated by centrifugation. Cells cultivated in suspension (MEC-1 and lymphocytes) were transferred by dilution. The cells are suspended in culture medium and counted, each time 1.5×10^5 cells/cm^2 are seeded in 48-well plates and cultured for between 1.5 and 24 hours at 37 degrees Celsius, 5% CO2. Peptides are pre-diluted from stock solution with culture medium and 200 μl of peptide solution added so that final concentrations of 30 to 500 μM peptide are present in at most 1% (v/v) DMSO. As control solutions, culture medium without peptide (DMSO-containing) in culture medium or etoposide solution is added. After incubating the cells for several hours, the cell supernatant is transferred to a FACS tube for each batch and, after washing the cells with PBS, the wash solution is added. Then the cells are incubated with 200 μl of biotase solution for 10 min, 37° C., the cells with the biotase are also transferred to the FACS tube and the cells are collected by centrifugation for 5 min. The cell pellet is suspended in 500 μl of serum-free culture medium, then 1.5 ml of cold 80% ethanol (ethanol/PBS-80/20, v/v, stored at −20° C.) is added, the FACS tubes sealed and stored at −20 degrees Celsius for 15 to 18 h. Thereafter, the cells are centrifuged for 5 minutes at 120 g, suspended after removal of the supernatant in 2 ml PBS and incubated at 37 degrees Celsius for 30 minutes. After re-centrifugation, the cells are suspended in 0.5 ml DAPI solution and incubated for 15 min at 20 degrees Celsius in the dark. Thereafter, the cells are stored dark for a maximum of four hours in an ice bath, followed by the FACS analysis.
For suspension cells (MEC-1 and lymphocytes/PBMC) and for adherent cells analyzed according to Protocol A, FACS analysis to determine subG1 cell cycle and vital cell fractions was done on a Becton Dickinson LSR Fortessa flow cytometer. The analysis by FACS including subG1 and vital cell analysis according to protocol B was performed with a Cytomics FC 500 MPL flow cytometer from Beckman Coulter.
Changes of the cell form during cell death by apoptosis are documented in the literature (Lizard et al. 1995; Taga et al. 2000; Vermes et al., 2000). The protocols for cell cultivation, treatment and preparation of the cells before flow cytometry is detailed in separate examples. Cell suspensions of cell lines A375, BxPC-3, MEC-1 or of primary lymphocytes (see separate example of lymphocyte preparation) are analyzed by flow cytometry. The data are further analyzed by using the program “Flowing Software 2”. The data of light scattering are drawn in a two-dimensional FSC/SSC plot. Since the position in the FSC/SSC plot of apoptotic cells changes relative to non-apoptotic cells (Vermes et al., 2000), a region (R-1) is drawn representing mainly non-apoptotic cells and excluding cells with both low FSC and low SSC values and excluding cells with high values of FSC and/or SSC (FIG. 1). The regions are individually selected for each cell type (A375, BxPC-3, MEC-1 and primary lymphocytes). The percentage of untreated non-apoptotic cells in the region R-1 relative to total cells is set to 100%, representing 100% vital cells. The fraction (%) of cells in R-1 relative to the total number of cells in case of cell treatment by certain peptides or by cytotoxic drugs results in cell vitality, below 100%, thereby indicating a loss of cell vitality by the treatment. […]

A375 melanoma cells [2] = assay: subG1 cell cycle FACS apoptosis assay, A375 melanoma cells; format: cell-based, human; conditions: about 24 hours, FIG. 3
Protocol: as §1
The adherent cells (A375 and BxPC-3 cells and MDA-MB-231, respectively) are seeded 24 hours before induction in 6-well plates in culture medium. For this, the cells are washed with PBS, then incubated with trypsin/EDTA solution at 37 degrees Celsius and suspended in culture medium. The 6-well plates are loaded with 1×10^5 cells/cm^2 in culture medium and the cells incubated for 24 hours until induction with the peptides in the incubator. For induction, the peptides are diluted in fresh culture medium. As control solutions, culture medium without peptide (DMSO-containing) in culture medium or etoposide solution is added. The cells are washed with PBS. Thereafter the peptide solution in culture medium is added to the cells. After incubation in the incubator (37° C., 5% CO2) between 1.5 and 24 hours, the cell supernatant is transferred to 15 ml centrifuge tubes, the cells are washed with 0.75 ml PBS and then with 0.5 ml versene solution. Both washings are combined with the cell supernatant. The cells are then added with 0.5 ml of trypsin/EDTA solution and incubated at about 37° C. for at most 10 minutes until the cells detached. The cell suspension is combined with cell supernatant and washings and centrifuged at about 130 g for about 10 minutes. After removing the supernatant, the cells are suspended in 400 μl of cell culture medium (without serum) and mixed with 1.2 ml of 80% ethanol/20% PBS (v/v) and incubated for 1 to 7 days at −20° C. For analysis, the cells are centrifuged at 130 g for 10 min, suspended in 2 ml PBS, and centrifuged again for 5 min. The cells are suspended in 700 μl PI buffer and incubated for 10 min at 37° C. in the dark. Subsequently, the cells are stored dark for a maximum of four hours in an ice bath, then the FACS analysis is performed.
The proportion of cells which have died was determined by two methods, both rely on the analysis of cells by flow cytometry, often called FACS analysis. […]

Which results are given for s-q-t-v-q-k-w-m-v-v-y-f-r [SEQID No 38]?
efficiency (decrease of cell vitality) in view of Peptide SEQ C1 (A375 melanoma cells [1]; 200 μM): at least threefold; efficiency (decrease of cell vitality) in view of Peptide SEQ C1 (A375 melanoma cells [1]; 500 μM): at least tenfold; decrease of cell vitality, comparison in words (A375 melanoma cells [1]): clear improvement over peptides SEQID NO 27 and SEQID NO 39 at any concentration; decrease of cell vitality, comparison in words (A375 melanoma cells [1]; listed as SEQID NO 38): significantly greater decrease than the peptide of the prior art (Peptide SEQ C1); apoptosis efficiency (subG1), comparison in words (A375 melanoma cells [2]; A375, Protocol A, 100, 200, 500 μM): clear improvement over peptide SEQID NO 27 at a concentration below 500 μM and over Peptide SEQID NO 39 at a concentration above 100 μM; apoptosis efficiency (subG1) in view of Peptide SEQ C1 (A375 melanoma cells [2]; A375, Protocol A, any concentration (100, 200, 500 μM)): at least tenfold

— patent publication US20220160812A1, “A PHARMACEUTICALLY ACTIVE SUBSTANCE” (Cytopharma GmbH, priority 2019, published 2022)
